{
  "source": "ChEMBL document CHEMBL4145665",
  "about": "“Structure-Activity Relationship of Novel and Selective Biaryl-Chroman GPR40 AgoPAMs” (ACS Med Chem Lett, 2018)",
  "key": {"[1]": {"biological_target": "T1, Free fatty acid receptor 1 (Homo sapiens, UniProt O14842)", "T1 sequence (O14842 whole entry)": "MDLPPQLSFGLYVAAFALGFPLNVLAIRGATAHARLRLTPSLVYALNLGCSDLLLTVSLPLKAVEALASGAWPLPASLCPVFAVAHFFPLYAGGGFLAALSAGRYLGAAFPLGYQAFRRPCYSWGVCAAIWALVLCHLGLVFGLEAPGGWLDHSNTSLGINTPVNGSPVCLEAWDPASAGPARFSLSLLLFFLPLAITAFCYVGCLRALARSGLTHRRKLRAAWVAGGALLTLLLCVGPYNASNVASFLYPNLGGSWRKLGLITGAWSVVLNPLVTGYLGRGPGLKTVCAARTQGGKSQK", "experiment": "Agonist activity at recombinant human GPR40 expressed in HEK293 cells assessed as increase in IP1 accumulation measured after 60 mins in presence of 100% human serum by HTRF assay", "format": "functional, cell-based"}, "Rattus norvegicus [2]": {"system": "Rattus norvegicus", "experiment": "Antidiabetic activity in Sprague-Dawley rat assessed as inhibition of blood glucose AUC at 3 mg/kg, po treated prior to dextrose challenge and measured after 20 to 60 mins by IPGTT relative to control", "format": "functional", "conditions": "Rattus norvegicus, Sprague-Dawley, po"}, "[3]": {"biological_target": "T1, Free fatty acid receptor 1", "experiment": "Agonist activity at recombinant human GPR40 expressed in HEK293 cells assessed as increase in IP1 accumulation measured after 60 mins by HTRF assay relative to AM-1638", "format": "functional, cell-based"}, "[4]": {"biological_target": "T1, Free fatty acid receptor 1", "experiment": "Agonist activity at recombinant human GPR40 expressed in HEK293 cells assessed as increase in IP1 accumulation measured after 60 mins in presence of 100% human serum by HTRF assay relative to AM-1638", "format": "functional, cell-based"}, "[5]": {"biological_target": "Free fatty acid receptor 1 (Rattus norvegicus) (UniProt Q8K3T4)", "sequence (Q8K3T4 whole entry)": "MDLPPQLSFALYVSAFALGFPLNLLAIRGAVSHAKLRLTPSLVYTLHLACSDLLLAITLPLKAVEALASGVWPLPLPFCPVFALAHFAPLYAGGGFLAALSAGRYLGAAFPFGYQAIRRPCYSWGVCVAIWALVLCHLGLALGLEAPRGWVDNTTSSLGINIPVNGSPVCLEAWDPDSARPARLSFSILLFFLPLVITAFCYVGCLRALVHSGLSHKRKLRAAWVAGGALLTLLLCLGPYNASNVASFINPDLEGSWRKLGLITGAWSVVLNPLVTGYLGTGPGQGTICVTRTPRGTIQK", "experiment": "Agonist activity at recombinant rat GPR40 expressed in CHOK1 cells assessed as increase in IP1 accumulation measured after 60 mins by HTRF assay relative to AM-1638", "format": "functional, cell-based"}, "Rattus norvegicus [6]": {"system": "Rattus norvegicus", "experiment": "Antidiabetic activity in po dosed Goto Kakizaki rats assessed as reduction in blood glucose excursion pretreated for 1 hr followed by dextrose challenge measured after 20 to 60 mins by OGTT method", "format": "functional", "conditions": "read-out: MED"}, "[7]": {"experiment": "Clearance in Wistar-Han rat at 1 mg/kg, iv or 2 mg/kg, po administered as single dose", "format": "ADME, organism-based", "conditions": "in vivo"}, "[8]": {"experiment": "Effective half life in Wistar-Han rat at 1 mg/kg, iv or 2 mg/kg, po administered as single dose", "format": "ADME, organism-based", "conditions": "in vivo, read-out: t1/2eff (converted)"}, "Rattus norvegicus [9]": {"system": "Rattus norvegicus", "experiment": "Antidiabetic activity in Goto Kakizaki rats assessed as inhibition of blood glucose AUC at 1 mg/kg, po pretreated for 1 hr followed by dextrose challenge measured after 20 to 60 mins by OGTT method relative to control", "format": "functional"}, "Rattus norvegicus [10]": {"system": "Rattus norvegicus", "experiment": "Antidiabetic activity in Goto Kakizaki rats assessed as inhibition of blood glucose AUC at 3 mg/kg, po pretreated for 1 hr followed by dextrose challenge measured after 20 to 60 mins by OGTT method relative to control", "format": "functional"}, "Rattus norvegicus [11]": {"system": "Rattus norvegicus", "experiment": "Antidiabetic activity in Goto Kakizaki rats assessed as inhibition of blood glucose AUC at 10 mg/kg, po pretreated for 1 hr followed by dextrose challenge measured after 20 to 60 mins by OGTT method relative to control", "format": "functional"}, "Rattus norvegicus [12]": {"system": "Rattus norvegicus", "experiment": "Antidiabetic activity in Goto Kakizaki rats assessed as inhibition of blood glucose AUC at 30 mg/kg, po pretreated for 1 hr followed by dextrose challenge measured after 20 to 60 mins by OGTT method relative to control", "format": "functional"}, "Rattus norvegicus [13]": {"system": "Rattus norvegicus", "experiment": "Antidiabetic activity in Goto Kakizaki rats assessed as plasma concentration required for reduction in blood glucose excursion at 1 mg/kg, po pretreated for 1 hr followed by dextrose challenge measured 3 hrs post dose by OGTT", "format": "functional, organism-based"}, "Rattus norvegicus [14]": {"system": "Rattus norvegicus", "experiment": "Antidiabetic activity in Goto Kakizaki rats assessed as plasma concentration required for reduction in blood glucose excursion at 3 mg/kg, po pretreated for 1 hr followed by dextrose challenge measured 3 hrs post dose by OGTT", "format": "functional, organism-based"}, "Rattus norvegicus [15]": {"system": "Rattus norvegicus", "experiment": "Antidiabetic activity in Goto Kakizaki rats assessed as plasma concentration required for reduction in blood glucose excursion at 10 mg/kg, po pretreated for 1 hr followed by dextrose challenge measured 3 hrs post dose by OGTT", "format": "functional, organism-based"}, "Rattus norvegicus [16]": {"system": "Rattus norvegicus", "experiment": "Antidiabetic activity in Goto Kakizaki rats assessed as plasma concentration required for reduction in blood glucose excursion at 30 mg/kg, po pretreated for 1 hr followed by dextrose challenge measured 3 hrs post dose by OGTT", "format": "functional, organism-based"}, "Bile salt export pump": {"biological_target": "Bile salt export pump (Homo sapiens, UniProt O95342)", "sequence (O95342 whole entry)": "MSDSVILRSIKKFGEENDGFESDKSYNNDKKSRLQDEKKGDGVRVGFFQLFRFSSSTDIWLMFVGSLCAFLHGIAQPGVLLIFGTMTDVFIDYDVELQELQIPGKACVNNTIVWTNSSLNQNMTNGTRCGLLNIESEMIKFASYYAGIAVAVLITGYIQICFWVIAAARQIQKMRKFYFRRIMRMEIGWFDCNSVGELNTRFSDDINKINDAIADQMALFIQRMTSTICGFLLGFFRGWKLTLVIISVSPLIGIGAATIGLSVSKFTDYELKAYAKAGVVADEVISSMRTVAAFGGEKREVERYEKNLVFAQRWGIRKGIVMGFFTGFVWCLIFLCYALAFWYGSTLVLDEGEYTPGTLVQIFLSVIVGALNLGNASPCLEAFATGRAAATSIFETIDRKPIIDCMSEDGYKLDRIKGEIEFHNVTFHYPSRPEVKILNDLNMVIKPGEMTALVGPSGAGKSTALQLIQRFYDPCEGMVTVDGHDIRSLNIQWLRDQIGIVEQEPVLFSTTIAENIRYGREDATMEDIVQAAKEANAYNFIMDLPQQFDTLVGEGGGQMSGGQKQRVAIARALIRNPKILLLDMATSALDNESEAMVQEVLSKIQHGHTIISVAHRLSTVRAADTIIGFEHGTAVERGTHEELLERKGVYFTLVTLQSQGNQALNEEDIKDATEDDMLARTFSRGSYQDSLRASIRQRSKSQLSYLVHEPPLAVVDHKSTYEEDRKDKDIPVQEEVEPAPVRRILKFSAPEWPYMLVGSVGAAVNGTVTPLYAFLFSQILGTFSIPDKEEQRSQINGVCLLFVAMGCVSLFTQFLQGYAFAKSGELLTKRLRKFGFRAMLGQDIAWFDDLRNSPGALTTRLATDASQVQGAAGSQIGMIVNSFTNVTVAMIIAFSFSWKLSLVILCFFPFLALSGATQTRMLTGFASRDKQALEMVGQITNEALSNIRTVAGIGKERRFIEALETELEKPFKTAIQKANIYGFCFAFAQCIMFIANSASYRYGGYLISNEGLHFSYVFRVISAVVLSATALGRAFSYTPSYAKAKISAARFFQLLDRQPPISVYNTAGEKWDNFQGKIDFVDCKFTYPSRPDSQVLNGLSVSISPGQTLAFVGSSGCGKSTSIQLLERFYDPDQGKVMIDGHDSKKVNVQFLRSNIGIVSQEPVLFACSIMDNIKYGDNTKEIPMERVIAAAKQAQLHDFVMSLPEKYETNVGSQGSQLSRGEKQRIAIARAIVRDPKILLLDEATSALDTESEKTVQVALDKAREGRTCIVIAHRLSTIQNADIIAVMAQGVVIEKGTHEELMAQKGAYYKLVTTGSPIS", "experiment": "Inhibition of human BSEP expressed in baculovirus infected Sf9 insect cell membrane vesicles assessed as reduction in ATP-dependent [3H]-taurocholic acid uptake", "format": "ADME"}, "Mus musculus": {"system": "Mus musculus", "experiment": "Antidiabetic activity in po dosed C57BL/6 mouse assessed as increase in GLP-1 secretion measured after 1 hr", "format": "functional, organism-based"}, "[17]": {"experiment": "Clearance in Beagle dog at 1 mg/kg, iv or 2 mg/kg, po administered as single dose", "format": "ADME, organism-based, Canis lupus familiaris", "conditions": "in vivo"}, "[18]": {"experiment": "Volume of distribution at steady state in Beagle dog at 1 mg/kg, iv or 2 mg/kg, po administered as single dose", "format": "ADME, organism-based, Canis lupus familiaris", "conditions": "in vivo, read-out: Vdss"}, "[19]": {"experiment": "Effective half life in Beagle dog at 1 mg/kg, iv or 2 mg/kg, po administered as single dose", "format": "ADME, organism-based, Canis lupus familiaris", "conditions": "in vivo, read-out: t1/2eff (converted)"}, "[20]": {"experiment": "Oral bioavailability in Beagle dog at 2 mg/kg administered as single dose", "format": "ADME, organism-based, Canis lupus familiaris", "conditions": "in vivo"}, "[21]": {"experiment": "Fraction unbound in rhesus monkey plasma at 1 mg/kg, iv or 2 mg/kg, po administered as single dose", "format": "ADME, organism-based, Macaca mulatta"}, "[22]": {"experiment": "Clearance in rhesus monkey at 1 mg/kg, iv or 2 mg/kg, po administered as single dose", "format": "ADME, organism-based, Macaca mulatta", "conditions": "in vivo"}, "[23]": {"experiment": "Volume of distribution at steady state in rhesus monkey at 1 mg/kg, iv or 2 mg/kg, po administered as single dose", "format": "ADME, organism-based, Macaca mulatta", "conditions": "in vivo, read-out: Vdss"}, "[24]": {"experiment": "Oral bioavailability in rhesus monkey at 2 mg/kg administered as single dose", "format": "ADME, organism-based, Macaca mulatta", "conditions": "in vivo"}, "[25]": {"experiment": "Intrinsic clearance in Wistar-Han rat hepatocytes", "format": "ADME, cell-based, Hepatocyte", "conditions": "read-out: CLH"}, "[26]": {"experiment": "Intrinsic clearance in Beagle dog hepatocytes", "format": "ADME, cell-based, Canis lupus familiaris, Hepatocyte", "conditions": "read-out: CLH"}, "[27]": {"experiment": "AUC (0 to 24 hrs) in Wistar rat at 200 mg/kg administered once daily for 4 days", "format": "ADME, organism-based", "set-up": "dose 200 mg/kg, time < 24 hr", "conditions": "in vivo"}, "[28]": {"experiment": "Cmax in Wistar rat at 200 mg/kg administered once daily for 4 days", "format": "ADME, organism-based", "set-up": "dose 200 mg/kg", "conditions": "in vivo"}, "[29]": {"experiment": "Tmax in Wistar rat at 200 mg/kg administered once daily for 4 days", "format": "ADME, organism-based", "conditions": "in vivo"}, "[30]": {"experiment": "Tmax in Wistar rat at 750 mg/kg administered once daily for 4 days", "format": "ADME, organism-based", "conditions": "in vivo"}, "Rattus norvegicus [31]": {"system": "Rattus norvegicus", "experiment": "Toxicity in Wistar rat assessed as change in cardiac troponin1 levels at 200 to 750 mg/kg administered once daily for 4 days", "format": "organism-based", "conditions": "in vivo, 96 h"}, "Rattus norvegicus [32]": {"system": "Rattus norvegicus", "experiment": "Toxicity in Wistar rat assessed as change in functional observational battery at 200 to 750 mg/kg administered once daily for 4 days", "format": "organism-based", "conditions": "in vivo, 96 h"}, "[33]": {"biological_target": "T2, Free fatty acid receptor 4 (Homo sapiens, UniProt Q5NUL3)", "T2 sequence (Q5NUL3 whole entry)": "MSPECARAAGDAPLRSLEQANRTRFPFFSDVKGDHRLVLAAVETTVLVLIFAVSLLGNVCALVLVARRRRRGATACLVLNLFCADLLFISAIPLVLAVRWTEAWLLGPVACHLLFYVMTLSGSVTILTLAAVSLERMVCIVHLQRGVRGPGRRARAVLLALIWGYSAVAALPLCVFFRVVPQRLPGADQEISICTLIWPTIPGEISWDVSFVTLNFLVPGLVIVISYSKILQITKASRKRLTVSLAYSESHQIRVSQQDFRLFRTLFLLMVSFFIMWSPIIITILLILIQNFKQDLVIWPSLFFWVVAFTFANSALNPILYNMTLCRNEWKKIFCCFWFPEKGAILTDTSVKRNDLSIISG", "experiment": "Agonist activity at GPR120 (unknown origin)", "format": "functional"}},
  "note": "pEC50, pIC50: −log10 of the molar value.",
  "data": [
    {"smiles": "COc1cc(-c2ccc([C@@H]3CCc4ccc([C@H](C5CC5)[C@H](C)C(=O)[O-])cc4O3)c(F)c2)ccn1.[Na+]", "values": [
      {"measurement": "pEC50", "setting": "[1]", "result": 7.46},
      {"measurement": "inhibition in vivo at 3 mg/kg", "setting": "Rattus norvegicus [2]", "result": 103, "unit": "%"},
      {"measurement": "max activation", "setting": "[3]", "result": "> 179", "unit": "%"},
      {"measurement": "max activation", "setting": "[4]", "result": "> 179", "unit": "%"},
      {"measurement": "max activation", "setting": "[5]", "result": "> 370", "unit": "%"},
      {"measurement": "minimal effective dose", "setting": "Rattus norvegicus [6]", "result": 10, "unit": "mg/kg"},
      {"measurement": "clearance", "setting": "[7]", "result": 2.8, "unit": "mL/min/kg"},
      {"measurement": "half-life", "setting": "[8]", "result": 3.7, "unit": "h"},
      {"measurement": "inhibition in vivo at 1 mg/kg", "setting": "Rattus norvegicus [9]", "result": 95, "unit": "%"},
      {"measurement": "inhibition in vivo at 3 mg/kg", "setting": "Rattus norvegicus [10]", "result": 108, "unit": "%"},
      {"measurement": "inhibition in vivo at 10 mg/kg", "setting": "Rattus norvegicus [11]", "result": 118, "unit": "%"},
      {"measurement": "inhibition in vivo at 30 mg/kg", "setting": "Rattus norvegicus [12]", "result": 114, "unit": "%"},
      {"measurement": "Cp", "setting": "Rattus norvegicus [13]", "result": 0.9, "unit": "µM"},
      {"measurement": "Cp", "setting": "Rattus norvegicus [14]", "result": 2.2, "unit": "µM"},
      {"measurement": "Cp", "setting": "Rattus norvegicus [15]", "result": 4.9, "unit": "µM"},
      {"measurement": "Cp", "setting": "Rattus norvegicus [16]", "result": 7.7, "unit": "µM"},
      {"measurement": "pIC50", "setting": "Bile salt export pump", "result": 5.46},
      {"measurement": "Activity", "setting": "Mus musculus", "result": "Dose-dependent effect"},
      {"measurement": "clearance", "setting": "[17]", "result": 1.6, "unit": "mL/min/kg"},
      {"measurement": "Vd", "setting": "[18]", "result": 0.45, "unit": "L/kg"},
      {"measurement": "half-life", "setting": "[19]", "result": 6.9, "unit": "h"},
      {"measurement": "bioavailability", "setting": "[20]", "result": 79, "unit": "%"},
      {"measurement": "fraction unbound", "setting": "[21]", "result": 0.00071},
      {"measurement": "clearance", "setting": "[22]", "result": 0.72, "unit": "mL/min/kg"},
      {"measurement": "Vd", "setting": "[23]", "result": 0.48, "unit": "L/kg"},
      {"measurement": "bioavailability", "setting": "[24]", "result": 64, "unit": "%"},
      {"measurement": "CLint scaled", "setting": "[25]", "result": 241, "unit": "mL/min/kg"},
      {"measurement": "CLint scaled", "setting": "[26]", "result": 126, "unit": "mL/min/kg"},
      {"measurement": "AUC at 24 h", "setting": "[27]", "result": 2310, "unit": "µM·h"},
      {"measurement": "Cmax", "setting": "[28]", "result": 223, "unit": "µM"},
      {"measurement": "Tmax", "setting": "[29]", "result": "1 to 2", "unit": "h"},
      {"measurement": "Tmax", "setting": "[30]", "result": "1 to 2", "unit": "h"},
      {"measurement": "Activity", "setting": "Rattus norvegicus [31]", "result": "Non-Toxic"},
      {"measurement": "Activity", "setting": "Rattus norvegicus [32]", "result": "Non-Toxic"},
      {"measurement": "pEC50", "setting": "[33]", "result": "< 5.00"}
    ]}
  ]
}
